Measured values published in PMC5557891, “Time-lapse crystallography snapshots of a double-strand break repair polymerase in action” (Nature Communications, 2017).

Molecular target: T1, pol μ (truncated human wild-type DNA polymerase μ) (Homo sapiens, UniProt Q9NP87, DEL398-410)
T1 construct: gene POLM; recalled: residues about 132-494; loop2 'previously truncated to improve crystallizability' (between Pro397 and Ser411; recalled deletion Pro398-Pro410); GST fusion from pGEXM, tag cut on resin with TEV; E. coli BL21(DE3)CodonPlus-RIPL; parent model PDB 4M04
Test: time-lapse X-ray crystallography
Assay type: binding
Details: product complex after in crystallo TTP insertion into gapped DNA; 10 mM MgCl2 (60 min, 2.02 Å) or 10 mM MnCl2; 4 °C, pH 7.5

T1 sequence (Q9NP87 with tags, fused parts or gaps DEL398-410): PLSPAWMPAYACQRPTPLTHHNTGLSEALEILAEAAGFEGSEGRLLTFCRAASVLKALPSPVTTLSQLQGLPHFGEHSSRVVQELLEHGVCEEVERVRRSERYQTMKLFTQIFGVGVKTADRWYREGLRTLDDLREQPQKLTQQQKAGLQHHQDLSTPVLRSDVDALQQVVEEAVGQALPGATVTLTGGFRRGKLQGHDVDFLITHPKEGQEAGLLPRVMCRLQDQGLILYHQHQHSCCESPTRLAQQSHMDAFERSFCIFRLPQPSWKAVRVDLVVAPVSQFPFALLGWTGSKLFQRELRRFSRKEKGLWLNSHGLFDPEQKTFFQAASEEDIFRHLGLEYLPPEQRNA

**Q.** For `O=P(O)(O)OP(=O)(O)O` [PPi], which “time-lapse X-ray crystallography” value is on record?
**A.** The position of Pβ of the PPi product is identical to that expected after bond cleavage
